# Laboratory results: US7816134B2, “Method of extensive culture of antigen-specific cytotoxic T cells” (Takara Bio Inc., priority 2000, dated 2010)
# Read-outs that look alike come from different tables or passages of the source.
# What was measured:
# [1] = tested on: anti-influenza virus memory CTLs (FluMPA2.1); type: cell-based, human
# [2] = tested on: HLA-A2.1-having EBV transformed B-cells (221A2.1); conditions: for Cytotoxic Activity (%) E/T Ratio 3 / Cytotoxic Activity (%) E/T Ratio 10 / Cytotoxic Activity (%) E/T Ratio 1 / Cytotoxic Activity (%) E/T Ratio 30: FluMPA2.1
# [3] = tested on: HLA-A2.1-having EBV transformed B-cells (221A2.1); conditions: for Cytotoxic Activity (%) E/T Ratio 1 / Cytotoxic Activity (%) E/T Ratio 3 / Cytotoxic Activity (%) E/T Ratio 10 / Cytotoxic Activity (%) E/T Ratio 2.5 / Cytotoxic Activity (%) E/T Ratio 5: FluMPA2.1
# [4] = Example 2-4, sample 10 μg/ml during CTL induction +, during expansion +
# [5] = Example 2-6, sample during CTL induction −, during expansion + (10 μg/ml)
# [6] = Example 2-4, sample 10 μg/ml during CTL induction +, during expansion +, peptide addition +
# [7] = Example 2-4, sample 10 μg/ml during CTL induction +, during expansion +, peptide addition −
# [8] = Example 2-6, sample during CTL induction −, during expansion + (10 μg/ml), peptide addition +
# [9] = Example 2-6, sample during CTL induction −, during expansion + (10 μg/ml), peptide addition −
# [10] = Example 1-3, sample 10 μg/ml during CTL induction +, during culture with IL-2 +, peptide addition +
# [11] = Example 1-3, sample 10 μg/ml during CTL induction +, during culture with IL-2 +, peptide addition −
# [12] = Example 1-5, sample during CTL induction −, during culture with IL-2 + (10 μg/ml), peptide addition +
# [13] = Example 1-5, sample during CTL induction −, during culture with IL-2 + (10 μg/ml), peptide addition −
# [14] = sample 10 μg/ml only during continuous culture
# [15] = Example 1-4, sample 10 μg/ml during CTL induction +, during culture with IL-2 +, peptide addition +
# [16] = Example 1-4, sample 10 μg/ml during CTL induction +, during culture with IL-2 +, peptide addition −
# [17] = sample 10 μg/ml during CTL induction and during continuous culture, 10 to 14 days
# [18] = Example 2-3, sample 10 μg/ml during CTL induction +, during expansion +, peptide addition +
# [19] = Example 2-3, sample 10 μg/ml during CTL induction +, during expansion +, peptide addition −
# [20] = Example 2-7, sample 10 μg/ml during CTL induction +, during expansion +, peptide addition +
# [21] = Example 2-7, sample 10 μg/ml during CTL induction +, during expansion +, peptide addition −
# [22] = Example 2-7, sample 10 μg/ml during CTL induction +, during expansion −, peptide addition +
# [23] = Example 2-7, sample 10 μg/ml during CTL induction +, during expansion −, peptide addition −
# [24] = Example 1-2, sample 10 μg/ml during CTL induction +, during culture with IL-2 +, peptide addition +
# [25] = Example 1-2, sample 10 μg/ml during CTL induction +, during culture with IL-2 +, peptide addition −
compound,measurement,setting,value
swellable alginic acid,Expansion Ratio,[1]; [4],× 176
same,Expansion Ratio,[1]; [5],× 378
same,Cytotoxic Activity (%) E/T Ratio 3,[2]; [6],65.0%
same,Cytotoxic Activity (%) E/T Ratio 10,[2]; [6],101.6%
same,Cytotoxic Activity (%) E/T Ratio 3,[2]; [7],14.3%
same,Cytotoxic Activity (%) E/T Ratio 10,[2]; [7],21.3%
same,Cytotoxic Activity (%) E/T Ratio 1,[2]; [8],15.4%
same,Cytotoxic Activity (%) E/T Ratio 3,[2]; [8],22.0%
same,Cytotoxic Activity (%) E/T Ratio 10,[2]; [8],47.8%
same,Cytotoxic Activity (%) E/T Ratio 30,[2]; [8],81.7%
same,Cytotoxic Activity (%) E/T Ratio 1,[2]; [9],0.1%
same,Cytotoxic Activity (%) E/T Ratio 3,[2]; [9],0%
same,Cytotoxic Activity (%) E/T Ratio 10,[2]; [9],2.1%
same,Cytotoxic Activity (%) E/T Ratio 30,[2]; [9],10.6%
same,Cytotoxic Activity (%) E/T Ratio 1,[3]; [10],39.8%
same,Cytotoxic Activity (%) E/T Ratio 3,[3]; [10],75.3%
same,Cytotoxic Activity (%) E/T Ratio 10,[3]; [10],86.9%
same,Cytotoxic Activity (%) E/T Ratio 1,[3]; [11],12.5%
same,Cytotoxic Activity (%) E/T Ratio 3,[3]; [11],26.5%
same,Cytotoxic Activity (%) E/T Ratio 10,[3]; [11],22.2%
same,Cytotoxic Activity (%) E/T Ratio 1,[3]; [12],12.6%
same,Cytotoxic Activity (%) E/T Ratio 3,[3]; [12],18.7%
same,Cytotoxic Activity (%) E/T Ratio 10,[3]; [12],35.6%
same,Cytotoxic Activity (%) E/T Ratio 1,[3]; [13],3.3%
same,Cytotoxic Activity (%) E/T Ratio 3,[3]; [13],1.3%
same,Cytotoxic Activity (%) E/T Ratio 10,[3]; [13],8.8%
same,cytotoxic activity after continuous culture (in words),[3]; [14],maintaining an antigen-specific cytotoxic activity
sodium salt of sulfated fucose,Expansion Ratio,[1]; [4],× 240
same,Expansion Ratio,[1]; [5],× 448
same,Cytotoxic Activity (%) E/T Ratio 10,[2]; [6],70.2%
same,Cytotoxic Activity (%) E/T Ratio 10,[2]; [7],23.3%
same,Cytotoxic Activity (%) E/T Ratio 10,[2]; [8],32.5%
same,Cytotoxic Activity (%) E/T Ratio 30,[2]; [8],64.9%
same,Cytotoxic Activity (%) E/T Ratio 10,[2]; [9],0%
same,Cytotoxic Activity (%) E/T Ratio 30,[2]; [9],1.3%
same,Cytotoxic Activity (%) E/T Ratio 2.5,[3]; [15],17.6%
same,Cytotoxic Activity (%) E/T Ratio 5,[3]; [15],36.6%
same,Cytotoxic Activity (%) E/T Ratio 10,[3]; [15],55.3%
same,Cytotoxic Activity (%) E/T Ratio 2.5,[3]; [16],0%
same,Cytotoxic Activity (%) E/T Ratio 5,[3]; [16],0%
same,Cytotoxic Activity (%) E/T Ratio 10,[3]; [16],0.2%
same,Cytotoxic Activity (%) E/T Ratio 1,[3]; [12],8.9%
same,Cytotoxic Activity (%) E/T Ratio 3,[3]; [12],12.6%
same,Cytotoxic Activity (%) E/T Ratio 10,[3]; [12],26.4%
same,Cytotoxic Activity (%) E/T Ratio 1,[3]; [13],0%
same,Cytotoxic Activity (%) E/T Ratio 3,[3]; [13],0.4%
same,Cytotoxic Activity (%) E/T Ratio 10,[3]; [13],3.3%
same,cytotoxic activity after continuous culture (in words),[3]; [17],effects for maintaining cytotoxic activity
same,cytotoxic activity after continuous culture (in words),[3]; [14],maintaining an antigen-specific cytotoxic activity
sodium chondroitin sulfate A,Expansion Ratio,[1]; [4],× 280
same,Expansion Ratio,[1]; [5],× 383
same,Cytotoxic Activity (%) E/T Ratio 3,[2]; [6],56.7%
same,Cytotoxic Activity (%) E/T Ratio 10,[2]; [6],89.0%
same,Cytotoxic Activity (%) E/T Ratio 3,[2]; [7],0%
same,Cytotoxic Activity (%) E/T Ratio 10,[2]; [7],5.3%
same,Cytotoxic Activity (%) E/T Ratio 1,[2]; [8],8.0%
same,Cytotoxic Activity (%) E/T Ratio 3,[2]; [8],18.7%
same,Cytotoxic Activity (%) E/T Ratio 10,[2]; [8],36.6%
same,Cytotoxic Activity (%) E/T Ratio 30,[2]; [8],67.6%
same,Cytotoxic Activity (%) E/T Ratio 1,[2]; [9],6.3%
same,Cytotoxic Activity (%) E/T Ratio 3,[2]; [9],5.6%
same,Cytotoxic Activity (%) E/T Ratio 10,[2]; [9],7.5%
same,Cytotoxic Activity (%) E/T Ratio 30,[2]; [9],18.8%
same,Cytotoxic Activity (%) E/T Ratio 10,[3]; [10],75.5%
same,Cytotoxic Activity (%) E/T Ratio 10,[3]; [11],21.1%
same,cytotoxic activity after continuous culture (in words),[3]; [17],continuous culture of CTLs having an antigen-specific cytotoxic activity can be carried out
CC1OC(OC2C(OC3C(OC4C(OS(=O)(=O)O)C(C)OC(O)C4OS(=O)(=O)O)OC(C)C(OS(=O)(=O)O)C3OC3OC(C)C(OS(=O)(=O)O)C(OS(=O)(=O)O)C3OS(=O)(=O)O)OC(C)C(OS(=O)(=O)O)C2OC2OC(C)C(OS(=O)(=O)O)C(OC3OC(C)C(OS(=O)(=O)O)C(O)C3OS(=O)(=O)O)C2OS(=O)(=O)O)C(O)C(OS(=O)(=O)O)C1O (stereo not shown) [7-12SFd-F],Expansion Ratio,"[1]; Example 2-3, sample 10 μg/ml during CTL induction +, during expansion +, 14 days",× 178
same,Expansion Ratio,[1]; [5],× 310
same,Expansion Ratio,"[1]; Example 2-7, sample 10 μg/ml during CTL induction +, during expansion +",× 258
same,Expansion Ratio,"[1]; Example 2-7, sample 10 μg/ml during CTL induction +, during expansion −",× 283
same,Cytotoxic Activity (%) E/T Ratio 3,[2]; [18],67.0%
same,Cytotoxic Activity (%) E/T Ratio 10,[2]; [18],93.7%
same,Cytotoxic Activity (%) E/T Ratio 3,[2]; [19],2.8%
same,Cytotoxic Activity (%) E/T Ratio 10,[2]; [19],0%
same,Cytotoxic Activity (%) E/T Ratio 1,[2]; [8],14.1%
same,Cytotoxic Activity (%) E/T Ratio 3,[2]; [8],20.1%
same,Cytotoxic Activity (%) E/T Ratio 10,[2]; [8],41.7%
same,Cytotoxic Activity (%) E/T Ratio 30,[2]; [8],64.6%
same,Cytotoxic Activity (%) E/T Ratio 1,[2]; [9],2.7%
same,Cytotoxic Activity (%) E/T Ratio 3,[2]; [9],0%
same,Cytotoxic Activity (%) E/T Ratio 10,[2]; [9],1.0%
same,Cytotoxic Activity (%) E/T Ratio 30,[2]; [9],3.5%
same,Cytotoxic Activity (%) E/T Ratio 1,[2]; [20],9.4%
same,Cytotoxic Activity (%) E/T Ratio 3,[2]; [20],23.4%
same,Cytotoxic Activity (%) E/T Ratio 10,[2]; [20],44.2%
same,Cytotoxic Activity (%) E/T Ratio 30,[2]; [20],82.1%
same,Cytotoxic Activity (%) E/T Ratio 1,[2]; [21],0%
same,Cytotoxic Activity (%) E/T Ratio 3,[2]; [21],0%
same,Cytotoxic Activity (%) E/T Ratio 10,[2]; [21],0%
same,Cytotoxic Activity (%) E/T Ratio 30,[2]; [21],1.6%
same,Cytotoxic Activity (%) E/T Ratio 1,[2]; [22],14.0%
same,Cytotoxic Activity (%) E/T Ratio 3,[2]; [22],34.6%
same,Cytotoxic Activity (%) E/T Ratio 10,[2]; [22],50.4%
same,Cytotoxic Activity (%) E/T Ratio 30,[2]; [22],83.5%
same,Cytotoxic Activity (%) E/T Ratio 1,[2]; [23],6.7%
same,Cytotoxic Activity (%) E/T Ratio 3,[2]; [23],6.5%
same,Cytotoxic Activity (%) E/T Ratio 10,[2]; [23],9.3%
same,Cytotoxic Activity (%) E/T Ratio 30,[2]; [23],9.8%
same,cytotoxic activity after expansion for 14 days (in words),"[2]; sample 10 μg/ml during CTL induction and during expansion, no EBV-B cells","maintained specific, high cytotoxic activity"
same,Cytotoxic Activity (%) E/T Ratio 1,[3]; [24],12.0%
same,Cytotoxic Activity (%) E/T Ratio 3,[3]; [24],37.9%
same,Cytotoxic Activity (%) E/T Ratio 10,[3]; [24],60.7%
same,Cytotoxic Activity (%) E/T Ratio 1,[3]; [25],0.3%
same,Cytotoxic Activity (%) E/T Ratio 3,[3]; [25],2.2%
same,Cytotoxic Activity (%) E/T Ratio 10,[3]; [25],11.7%
same,cytotoxic activity after continuous culture (in words),[3]; [17],maintaining an antigen-specific cytotoxic activity
